From paper PMC12040169 (PLOS Biology, 2025)

Assay: in vitro
Conditions: human, hela cells, % viability

Q: Which viability at 28.5 h, 10 µM does the source give for `CCOC(=O)c1nnsc1Sc1ccc(C)cc1` [CBK018867] here?
A: 89.6%

Q: Which viability at 28.5 h, 10 µM does the source give for `COc1cc2c(cc1OC)CN(C(=O)Cc1ccccc1)CC2` [CBK122751] here?
A: 90.7%

Q: For `COc1cccc(C(=O)N2CCC(NC(=O)c3ccc(C(F)(F)F)cc3)CC2)c1` [CBK155022], which viability at 28.5 h, 10 µM is on record?
A: 104%

Q: For `CCCCC(=O)Nc1nc(-c2ccc(S(=O)(=O)N3CCOCC3)cc2)cs1` [CBK096107], which viability at 28.5 h, 10 µM is on record?
A: 86%

Q: For `Cc1scc(C(=O)NCc2ccccn2)c1-c1ccccc1` [CBK268107], which viability at 28.5 h, 10 µM is on record?
A: 89%

Q: For `O=C(c1ccc2[nH]ccc2c1)N1CCc2ccccc21` [CBK200269], which viability at 28.5 h, 10 µM is on record?
A: 101%

Q: Which viability at 28.5 h, 10 µM does the source give for `CC1CCN(c2ccc([N+](=O)[O-])c(N3CCC(C)CC3)c2)CC1` [CBK001367] here?
A: 92.5%

Q: For `Cn1cc(C(Nc2cccc(C#N)n2)[C@H]2C[C@H](O)C2)cn1` (stereo partly shown) [CBK307011], which viability at 28.5 h, 10 µM is on record?
A: 105%

Q: With `COc1ccc2ncc3c(-c4ccccc4)n[nH]c3c2c1` [CBK288052] as the compound, how does the viability at 28.5 h, 10 µM read?
A: 93.3%

Q: With `O=C(CSc1nnc(-c2ccncc2)o1)Nc1ccccc1` [CBK287586] as the compound, how does the viability at 28.5 h, 10 µM read?
A: 91.3%

Q: With `CC(C)c1cccc(N2CC(C(=O)Nc3cc(S(C)(=O)=O)ccc3F)CC2=O)c1` (stereo not shown) [CBK296751] as the compound, how does the viability at 28.5 h, 10 µM read?
A: 96.8%

Q: For `O=C1NC2(CCc3ccccc31)CCN(C(=O)c1ccc(F)cc1)C2` (stereo not shown) [CBK285308], which viability at 28.5 h, 10 µM is on record?
A: 102%

Q: For `COc1cc(CNc2cc(-c3ccc(N4CCOCC4)cc3)ncn2)cc(OC)c1OC` [CBK091174], which viability at 28.5 h, 10 µM is on record?
A: 93.9%

Q: For `Cc1cccc(-c2csc3c(=O)[nH]c(N4CCC(C(=O)NCc5cccnc5)CC4)nc23)c1` [CBK215624], which viability at 28.5 h, 10 µM is on record?
A: 86.8%

Q: For `CCOC(=O)c1c(NC(=O)c2nc3ncccn3n2)sc(C)c1C` [CBK267630], which viability at 28.5 h, 10 µM is on record?
A: 114%

Q: With `CC(C)CNC(=O)c1cccc(NC(=O)N2CCC2c2cccs2)c1` (stereo not shown) [CBK306927] as the compound, how does the viability at 28.5 h, 10 µM read?
A: 99.9%

Q: Which viability at 28.5 h, 10 µM does the source give for `Cn1nc2c(cc1=O)CN(C(=O)c1ccc3cc[nH]c3c1)CC2` [CBK304343] here?
A: 93.8%

Q: For `CS(=O)(=O)c1nc2cccnc2s1` [CBK017260], which viability at 28.5 h, 10 µM is on record?
A: 95.2%

Q: For `Cc1nc(CCNC(=O)c2cc(C(C)C)n(C(C)(C)C)n2)cs1` [CBK304082], which viability at 28.5 h, 10 µM is on record?
A: 89.2%

Q: Which viability at 28.5 h, 10 µM does the source give for `CCN1CCN(S(=O)(=O)c2ccc(Br)cc2)CC1` [CBK100197] here?
A: 99.7%

Q: With `COc1ccc(C2(C(=O)NCc3c(F)cccc3F)CC2)cc1` [CBK149826] as the compound, how does the viability at 28.5 h, 10 µM read?
A: 108%

Q: For `CN(C)c1ccc(-n2ncc(-c3ccccc3C(F)(F)F)n2)cc1` [CBK112716], which viability at 28.5 h, 10 µM is on record?
A: 92.4%

Q: For `CC1=NNC(=O)C1Cc1ccc(F)cc1` (stereo not shown) [CBK067755], which viability at 28.5 h, 10 µM is on record?
A: 97.4%

Q: Which viability at 28.5 h, 10 µM does the source give for `COc1ccc([C@H]2CN(Cc3ccccc3)[C@@H]3CCN(C(=O)c4ccccc4F)C[C@H]23)cc1` [CBK285542] here?
A: 91.1%

Q: Which viability at 28.5 h, 10 µM does the source give for `Cc1cc(C)nc(N/C(=N/C(=O)CCN2C(=O)c3ccccc3C2=O)Nc2cccc(Cl)c2)n1` [CBK266507] here?
A: 97%

Q: With `CC(C)N1CCN(c2nccnc2Cl)CC1` [CBK028901] as the compound, how does the viability at 28.5 h, 10 µM read?
A: 101%

Q: Which viability at 28.5 h, 10 µM does the source give for `Cc1cc(C)c2c(N)c(C(=O)O)sc2n1` [CBK131868] here?
A: 87.8%

Q: Which viability at 28.5 h, 10 µM does the source give for `COc1cccc(/C=N/N2C(=O)c3ccc([N+](=O)[O-])cc3NC2c2cccc(OC)c2O)c1O` (stereo not shown) [CBK074439] here?
A: 91.3%

Q: For `O=C(c1ccccc1C(F)(F)F)N1CCC(n2c(=O)[nH]c3ccccc32)CC1` [CBK149706], which viability at 28.5 h, 10 µM is on record?
A: 97%

Q: For `CSc1nnnn1-c1cccc(NC(=O)N2CCCN(C)CC2)c1` [CBK304180], which viability at 28.5 h, 10 µM is on record?
A: 78.1%

Q: Which viability at 28.5 h, 10 µM does the source give for `Cc1cc(NC(=O)CN(C)Cc2ccc(Br)cc2)on1` [CBK305599] here?
A: 97.3%

Q: With `CNC(=O)CN1C[C@H](NC(=O)c2cccc3c2NCCC3)[C@@H](C(C)C)C1` [CBK307073] as the compound, how does the viability at 28.5 h, 10 µM read?
A: 80.6%

Q: For `S=C(NCCc1ccccn1)NCCN1CCOCC1` [CBK268296], which viability at 28.5 h, 10 µM is on record?
A: 101%

Q: Which viability at 28.5 h, 10 µM does the source give for `C/C(=N\Nc1cccc2cccnc12)C(C)(C)C` [CBK021957] here?
A: 113%

Q: With `CCc1[nH]nc2c1C1(CN3CCC1CC3)C(C#N)=C(N)O2` (stereo not shown) [CBK267454] as the compound, how does the viability at 28.5 h, 10 µM read?
A: 101%

Q: With `COc1ccc(C(=O)N2CCN(Cc3cccnc3)CC2)cc1OC` [CBK263321] as the compound, how does the viability at 28.5 h, 10 µM read?
A: 99.3%

Q: For `CC(=O)c1cc(C(=O)Nc2ccc(NC(=O)C(=O)O)cc2)oc1C` [CBK264011], which viability at 28.5 h, 10 µM is on record?
A: 95.4%

Q: For `O=[N+]([O-])c1ccc(NCCNC(=S)Nc2ccc(Cl)cc2)nc1` [CBK263594], which viability at 28.5 h, 10 µM is on record?
A: 85.8%

Q: With `CN1CCN(C(=O)CN(c2cccc([N+](=O)[O-])c2)S(=O)(=O)c2ccccc2)CC1` [CBK264121] as the compound, how does the viability at 28.5 h, 10 µM read?
A: 87.6%

Q: Which viability at 28.5 h, 10 µM does the source give for `Cc1cn2c(=O)c3ncn([C@H]4C[C@@H](O)[C@@H](CO)O4)c3nc2[nH]1` [CBK201320] here?
A: 86.6%

Q: Which viability at 28.5 h, 10 µM does the source give for `COc1ccc(NC(=S)NC(=N)N2CCN(Cc3ccccc3)CC2)cc1` [CBK267858] here?
A: 95.1%

Q: With `N#Cc1ccc(CNC(=O)c2ccc3nc[nH]c3c2)cc1` [CBK153332] as the compound, how does the viability at 28.5 h, 10 µM read?
A: 95.1%

Q: Which viability at 28.5 h, 10 µM does the source give for `CC(C)(C)OC(=O)N1CCC(C2OCc3cc(C(=O)N4CCNC(=O)C4)ccc3O2)CC1` (stereo not shown) [CBK173277] here?
A: 105%

Q: For `O=S(=O)(CCSc1ccc(Cl)cc1)Oc1ccccc1` [CBK261021], which viability at 28.5 h, 10 µM is on record?
A: 102%

Q: With `CC1=C[C@@H](CN2CCC(O)CC2)[C@H](C(C)C)C[C@H]1Cc1nnc(-c2ccccc2)o1` [CBK289220] as the compound, how does the viability at 28.5 h, 10 µM read?
A: 97.2%

Q: With `CC1CCCN(CC(C)NC(=O)Cn2cnc3ccc(F)cc3c2=O)C1` (stereo not shown) [CBK305953] as the compound, how does the viability at 28.5 h, 10 µM read?
A: 91.5%

Q: For `CC(=O)c1cccc(NC(=O)c2cccn(Cc3ccc(C)cc3)c2=O)c1` [CBK294427], which viability at 28.5 h, 10 µM is on record?
A: 114%

Q: Which viability at 28.5 h, 10 µM does the source give for `CSCCC(=O)Nc1cc(C)nc2ccccc12` [CBK122729] here?
A: 108%

Q: With `OCc1nnn(-c2ccncc2)c1CO` [CBK288549] as the compound, how does the viability at 28.5 h, 10 µM read?
A: 96.8%

Q: Which viability at 28.5 h, 10 µM does the source give for `Cc1nc(-c2ccc(N3CC(C(N)=O)CCC3C)nc2)[nH]c(=O)c1C` (stereo not shown) [CBK306463] here?
A: 83.9%

Q: Which viability at 28.5 h, 10 µM does the source give for `CN(C)Cc1c(O)ccc2occ(C(=O)c3cccs3)c12` [CBK261959C] here?
A: 103%

Q: Which viability at 28.5 h, 10 µM does the source give for `NC(=O)C1(N2CCCCC2)CCN(C2CC(=O)N(Cc3ccc(N4CCCC4=O)cc3)C2=O)CC1` (stereo not shown) [CBK266598] here?
A: 102%

Q: With `C[C@@H](Cn1nc2c(cc1=O)CCCC2)NC(=O)c1ccccc1F` [CBK284560] as the compound, how does the viability at 28.5 h, 10 µM read?
A: 92.5%

Q: Which viability at 28.5 h, 10 µM does the source give for `Cn1nccc1C(=O)C1CCN(C(=O)c2cc3c(s2)CCC3)CC1` [CBK284427] here?
A: 78.6%

Q: Which viability at 28.5 h, 10 µM does the source give for `CCCC1NCCn2cccc21` (stereo not shown) [CBK007074F] here?
A: 85.6%

Q: For `Cc1ccc(S(=O)(=O)NC(C)C(=O)Nc2cc(-c3nc4ccccc4[nH]3)ccc2C)cc1` (stereo not shown) [CBK110320], which viability at 28.5 h, 10 µM is on record?
A: 96.2%

Q: With `N#Cc1cccc(NC(=O)NC[C@H]2C[C@@H]3CC[N@]2C[C@@H]3CN2CCOCC2)c1` [CBK288763] as the compound, how does the viability at 28.5 h, 10 µM read?
A: 108%

Q: Which viability at 28.5 h, 10 µM does the source give for `COc1ccc(CCNC(=O)CCCc2cn(C)c3ccccc23)cc1OC` [CBK061740] here?
A: 100%

Q: With `CC(=O)Nc1cccc(-c2cnc3[nH]c(=O)n(C4CC4)c3n2)c1` [CBK064859] as the compound, how does the viability at 28.5 h, 10 µM read?
A: 103%

Q: For `CCn1cc(CN2C3CCC2CC(O)(c2ccc(F)cc2)C3)cn1` (stereo not shown) [CBK282741], which viability at 28.5 h, 10 µM is on record?
A: 77.3%

Q: With `O=C(c1n[nH]c2ccccc12)N1CCc2ccccc21` [CBK200282] as the compound, how does the viability at 28.5 h, 10 µM read?
A: 90.6%

Q: Which viability at 28.5 h, 10 µM does the source give for `Nc1cc(N)nc(SCC(=O)Nc2nonc2N)n1` [CBK267522] here?
A: 89.1%

Q: Which viability at 28.5 h, 10 µM does the source give for `COc1ccc(CCNC(=O)c2ccccc2NS(=O)(=O)c2cc(C(=O)O)ccc2OC)cc1` [CBK297506] here?
A: 90.8%

Q: Which viability at 28.5 h, 10 µM does the source give for `CCOc1cccc(-c2ccc(Nc3ccc(Oc4ccccc4)cc3)nc2)c1` [CBK037679] here?
A: 94.4%
